Results on 18 molecules are retold here after PubChem BioAssay (NCI).

Some test systems named below: A498 renal; HL-60(TB) leukemia; HOP-62 NSCLC; SK-OV-3 ovarian; HCC-2998 colon; CCRF-CEM leukemia; HT29 colon; UACC-257 melanoma; SF-539 CNS; MOLT-4 leukemia; M14 melanoma; SR leukemia; DU-145 prostate; T-47D breast.
Holding throughout (experiment): NCI anticancer screen, dose series, 48 h

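Values below derive from 48-hour exposures of cells grown in 96-well plates, with endpoints linearly interpolated between the two concentrations bracketing the appropriate inhibition level. At the TGI there is no net growth.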 Some results are limits rather than exact numbers.

With `CN1CCN(P2(=S)Oc3ccc4ccccc4c3-c3c(ccc4ccccc34)O2)CC1`, the TGI in the assay with A498 renal was greater than 100 µM; with HL-60(TB) leukemia, 39.9 µM; in the assay on HOP-62 NSCLC, greater than 78.9 µM; in the assay with SK-OV-3 ovarian, greater than 100 µM; in the assay with HCC-2998 colon, 41.8 µM; in the assay on CCRF-CEM leukemia, greater than 100 µM. Moreover, the TGI in the assay on HT29 colon is 49.8 µM; in the assay on UACC-257 melanoma it was greater than 91.4 µM; in the assay on SF-539 CNS it was 42.6 µM; with MOLT-4 leukemia it was 46.2 µM.
On to `O=C1N[C@@H]2C(=C[C@H](O)[C@@H](O)[C@H]2O)c2cc3c(c(O)c21)OCO3`, for which the TGI worked out at 0.106 µM in the assay with A498 renal; 0.0862 µM with HL-60(TB) leukemia; 0.0538 µM in the assay with HOP-62 NSCLC; 0.246 µM in the assay with SK-OV-3 ovarian; 0.0681 µM in the assay with HCC-2998 colon; 0.51 µM with CCRF-CEM leukemia. Also, the TGI in the assay on HT29 colon was determined as 0.172 µM; in the assay with UACC-257 melanoma it was 0.088 µM; in the assay on SF-539 CNS, 0.0486 µM; in the assay on MOLT-4 leukemia it was 0.296 µM.
For `CCCc1[nH]c2ccccc2c1-c1c(CCC)[nH]c2ccccc12`, the TGI in the assay on A498 renal is greater than 100 µM; in the assay with M14 melanoma, 27.9 µM; in the assay on HOP-62 NSCLC, 32.2 µM; in the assay with SR leukemia, greater than 100 µM; in the assay with DU-145 prostate, 35 µM; in the assay with SK-OV-3 ovarian it was 65.5 µM. For the same molecule, the TGI in the assay with HCC-2998 colon is 42.1 µM; in the assay with CCRF-CEM leukemia it was greater than 100 µM; with HT29 colon, 22.2 µM; in the assay on UACC-257 melanoma, 43.9 µM; in the assay with SF-539 CNS, 36.1 µM; with MOLT-4 leukemia, greater than 100 µM.
In the case of `CCOC(=O)c1c[nH]c2ccc3c(c2c1=O)S(=O)(=O)CC3` (tested in a mixture with another compound), the TGI in the assay with A498 renal, in the assay on HL-60(TB) leukemia, in the assay with HOP-62 NSCLC, in the assay on SK-OV-3 ovarian, in the assay on HCC-2998 colon and in the assay on CCRF-CEM leukemia was greater than 100 µM in each case. Besides, the TGI with HT29 colon, in the assay with UACC-257 melanoma, in the assay on SF-539 CNS and with MOLT-4 leukemia was greater than 100 µM in each case.
On to `O=C1CCCC/C1=C\c1ccc(Cl)c(Cl)c1`, for which the TGI with A498 renal was greater than 100 µM; with HL-60(TB) leukemia it was 48.9 µM; with M14 melanoma, 42.2 µM; in the assay on HOP-62 NSCLC, greater than 100 µM; with SK-OV-3 ovarian, greater than 100 µM; in the assay on HCC-2998 colon, 42.7 µM. The TGI in the assay on CCRF-CEM leukemia is 58.7 µM; in the assay with HT29 colon, 55.1 µM; with SF-539 CNS it was 32.5 µM; in the assay on MOLT-4 leukemia, 43.8 µM.
Turning to `COC(=O)C1CCC(=O)N1C(c1ccc2c(c1)OCO2)c1cc(OC)c(OC)c(OC)c1` (stereo not drawn), the TGI with A498 renal, in the assay on HL-60(TB) leukemia, with M14 melanoma, with HOP-62 NSCLC, in the assay with SR leukemia and in the assay on DU-145 prostate was greater than 100 µM throughout. Also, the TGI in the assay with SK-OV-3 ovarian, in the assay on HCC-2998 colon, in the assay with CCRF-CEM leukemia, in the assay on HT29 colon, in the assay with UACC-257 melanoma and with SF-539 CNS was greater than 100 µM in each case. This molecule showed a TGI in the assay on MOLT-4 leukemia greater than 100 µM.
With `COc1ccc(C2=NOC(N)(c3ccc(OC)cc3)C2)cc1` (stereo not drawn), the TGI in the assay on A498 renal, with HL-60(TB) leukemia, in the assay with M14 melanoma, in the assay with HOP-62 NSCLC, in the assay on SR leukemia and in the assay on DU-145 prostate was greater than 100 µM in each case. Further, the TGI with SK-OV-3 ovarian, in the assay with HCC-2998 colon, in the assay on CCRF-CEM leukemia, in the assay on HT29 colon, with UACC-257 melanoma and with SF-539 CNS was greater than 100 µM in each case. The same molecule returned a TGI with MOLT-4 leukemia greater than 100 µM.
Regarding `N#CCCC1(CCC#N)CCCCCCCCC(CCC#N)(CCC#N)C(O)C1O` (stereo not drawn), the TGI in the assay on A498 renal, in the assay with M14 melanoma, in the assay on HOP-62 NSCLC, in the assay on DU-145 prostate, with SK-OV-3 ovarian and in the assay with HCC-2998 colon was greater than 100 µM throughout. Besides, the TGI in the assay with HT29 colon is greater than 100 µM; in the assay with UACC-257 melanoma, greater than 100 µM; with SF-539 CNS it was 85.8 µM; in the assay with T-47D breast it was greater than 100 µM.
On to `CC[C@@]1(O)C(=O)OCc2c1cc1n(c2=O)Cc2c-1nc1ccccc1c2/C=N\NC(=O)C(N)CCSC` (stereo partly drawn), for which the TGI in the assay on A498 renal was 0.359 µM; in the assay on HL-60(TB) leukemia it was 2.66 µM; in the assay with M14 melanoma, 0.473 µM; in the assay on SR leukemia it was less than 0.0397 µM; in the assay on DU-145 prostate it was greater than 100 µM; in the assay on SK-OV-3 ovarian, 7.73 µM. In addition, the TGI with HCC-2998 colon was 5.26 µM; in the assay with CCRF-CEM leukemia it was greater than 100 µM; with UACC-257 melanoma, 2.45 µM.
For `CCCCCCCCCCCC[N+](CCCCCCCCCCCC)=C1SCCS1`, the TGI in the assay on A498 renal came to 29.4 µM; in the assay with HL-60(TB) leukemia, 12.1 µM; in the assay on M14 melanoma, 22.3 µM; in the assay on HOP-62 NSCLC it was 30.5 µM; in the assay on SR leukemia, 15.2 µM; in the assay on SK-OV-3 ovarian it was 30.1 µM. In addition, the TGI amounted to 22.4 µM in the assay on HCC-2998 colon; 12.8 µM in the assay with HT29 colon; 21.3 µM in the assay with UACC-257 melanoma; 25.5 µM in the assay with SF-539 CNS; 16.6 µM with MOLT-4 leukemia.
On to `COc1cccc(C(=O)C#Cc2cnc(OC)nc2OC)c1`, for which the TGI with A498 renal was determined as 22.1 µM; in the assay with HL-60(TB) leukemia, 5.92 µM; with M14 melanoma it was 6.28 µM; in the assay with HOP-62 NSCLC it was 47.8 µM; in the assay on DU-145 prostate, 12.4 µM; in the assay on SK-OV-3 ovarian it was 44.9 µM. Besides, the TGI with HCC-2998 colon came out at 17.5 µM; in the assay on HT29 colon, 2.67 µM; with UACC-257 melanoma, 6.42 µM; in the assay on MOLT-4 leukemia, 0.7 µM.
As for `COC(=O)C(=O)Cc1nc2ccccc2o1`, the TGI with A498 renal, in the assay with HL-60(TB) leukemia, with M14 melanoma, with HOP-62 NSCLC, in the assay on SR leukemia and in the assay on SK-OV-3 ovarian was greater than 100 µM each time. Besides, the TGI in the assay on HCC-2998 colon, with CCRF-CEM leukemia, in the assay on HT29 colon, in the assay on UACC-257 melanoma, with SF-539 CNS and in the assay on MOLT-4 leukemia was greater than 100 µM each time.
Turning to `CN(C)CCNC(=O)c1cccc2c(NC(CCC(N)=O)C(=O)O)c3ccccc3nc12` (stereo not drawn), the TGI was 37.2 µM in the assay on A498 renal; 27.5 µM with M14 melanoma; 47.8 µM with HOP-62 NSCLC; greater than 100 µM with SR leukemia; greater than 100 µM in the assay with DU-145 prostate; 54.9 µM with SK-OV-3 ovarian. Besides, the TGI in the assay with HCC-2998 colon is 55.6 µM; in the assay with CCRF-CEM leukemia it was greater than 100 µM; with HT29 colon it was 41.7 µM; in the assay on UACC-257 melanoma, greater than 100 µM; with SF-539 CNS, 21.7 µM; in the assay on MOLT-4 leukemia, 71.3 µM.
Take `O=NN(CCF)C(=O)NC1CCSCC1`: the TGI with A498 renal, in the assay on HL-60(TB) leukemia, with HOP-62 NSCLC, in the assay with SK-OV-3 ovarian, in the assay on HCC-2998 colon and in the assay on CCRF-CEM leukemia was greater than 100 µM each time. For the same molecule, the TGI in the assay with HT29 colon, with UACC-257 melanoma, in the assay on SF-539 CNS and with MOLT-4 leukemia was greater than 100 µM throughout.
For `C=C1CC[C@@H](C)[C@](C)(CCc2ccoc2)C/C=C\C=C/1C(=O)O`, the TGI is greater than 100 µM in the assay on A498 renal; 57 µM in the assay with HL-60(TB) leukemia; greater than 100 µM with M14 melanoma; greater than 100 µM with HOP-62 NSCLC; 59.2 µM with SR leukemia; greater than 100 µM in the assay with SK-OV-3 ovarian. Besides, the TGI in the assay with CCRF-CEM leukemia was 90.3 µM; with HT29 colon, greater than 100 µM; in the assay with UACC-257 melanoma, greater than 100 µM; in the assay with SF-539 CNS it was 42.6 µM; with MOLT-4 leukemia it was 95.8 µM.
As to `COC(=O)Cc1c(-c2c(CC(=O)OC)c3ccccc3n2C2OC(COC(C)=O)C(OC(C)=O)C(OC(C)=O)C2OC(C)=O)[nH]c2ccccc12` (stereo not drawn), the TGI in the assay on A498 renal, in the assay with M14 melanoma, in the assay on HOP-62 NSCLC, in the assay with SR leukemia, with DU-145 prostate and with SK-OV-3 ovarian was greater than 100 µM each time. Also, the TGI in the assay on HCC-2998 colon, with CCRF-CEM leukemia, in the assay with HT29 colon, with UACC-257 melanoma and in the assay with MOLT-4 leukemia was greater than 100 µM each time.
`Cc1cc(NS(=O)(=O)c2ccc(NC(=O)c3cccc4c(Nc5ccc(S(N)(=O)=O)cc5)c5ccccc5nc34)cc2)no1`: the TGI with A498 renal, in the assay with HL-60(TB) leukemia, with M14 melanoma, with HOP-62 NSCLC, with SR leukemia and with SK-OV-3 ovarian was greater than 100 µM each time. Besides, the TGI with HCC-2998 colon, in the assay on CCRF-CEM leukemia, with HT29 colon, in the assay with UACC-257 melanoma, in the assay with SF-539 CNS and in the assay on MOLT-4 leukemia was greater than 100 µM in each case.
In the case of `COc1cccc(C2c3cc4c(cc3OC3COC(=O)C32)OCO4)c1OC` (stereo not drawn), the TGI in the assay with A498 renal, in the assay with HL-60(TB) leukemia, with M14 melanoma, with HOP-62 NSCLC, with DU-145 prostate and in the assay on SK-OV-3 ovarian was greater than 100 µM throughout. Moreover, the TGI in the assay with HCC-2998 colon, in the assay on CCRF-CEM leukemia, in the assay on HT29 colon, with UACC-257 melanoma, in the assay on SF-539 CNS and in the assay on MOLT-4 leukemia was greater than 100 µM in each case.
